Results taken from patent US12446577B2 (priority 2018, dated 2025).
Like-named read-outs stand apart in the source and are kept apart here.

Assays:
[1] = test system: Phytophthora infestans; type: in vivo; conditions: 1 min dip, 7 days of incubation; for Lesion Size: n = 5
[2] = test system: Botrytis cinerea; assay: Mycelium growth inhibition on PDA (Example 7); type: cell-based; conditions: 3 days at 25° C; for Average mycelium diameter: n = 4
Procedure: (§1) Strains used for this trial were kept and refreshed on Potato Dextrose Agar (PDA) at 25° C.
(§2) To begin, a quantity of test product was directly added in a certain volume of PDA (about 20 mL/petri dish) (Table 11). Plugs of agar (diameter 10 mm) from one week-old cultures were placed at the centre of the PDA plates. Each object was performed in 4 repetitions. The petri dishes were then incubated at 25° C. in the dark. After 3 and 6 days of incubation, the diameter of the colonies was measured in 2 perpendicular directions. The percentage of inhibition was calculated for each product/concentration compare to the untreated.

[3] = test system: Sclerotinia minor; assay: Mycelium growth inhibition on PDA (Example 7); type: cell-based; conditions: 3 days at 25° C; for Average mycelium diameter: n = 4
Procedure: as §1, §2

[4] = test system: Pythium ultimum; assay: Mycelium growth inhibition on PDA (Example 7); type: cell-based; conditions: 3 days at 25° C; for Average mycelium diameter: n = 4
Procedure: as §1, §2

[5] = test system: Sclerotinia sclerotiorum; assay: Mycelium growth inhibition on PDA (Example 7); type: cell-based; conditions: 3 days at 25° C; for Average mycelium diameter: n = 4
Procedure: as §1, §2

[6] = test system: Rhizoctonia solani; assay: Mycelium growth inhibition on PDA (Example 7); type: cell-based; conditions: 3 days at 25° C; for Average mycelium diameter: n = 4
Procedure: as §1, §2

[7] = test system: Plasmopara viticola; assay: Plasmopara viticola grapevine leaf disc test; type: in vivo
Procedure: A stock solution of choline pelargonate (29.1% PLA and 40.4% Choline hydroxide, pH 8.82) was made by mixing 14.55 mL PLA with 15.25 mL distilled water and afterwards the addition of 20.2 mL of Choline hydroxide. The choline pelargonate stock solution (42.04%) was diluted in order to create a solution with a final concentration of choline pelargonate equal to 1 mL/L and 10 mL/L. The two choline pelargonate solutions, water as negative control and copper hydroxide (2 g/L) as positive control were used for this test. For each object 4 Petri plates were prepared and each plate contains 5 grapevine leaf discs (see Table 8 below).
Leaf discs preparation: leaf discs (diameter 19 mm) were prepared from grapevine cuttings (variety Pinot Nero Entav 115) using the young leaves. 5 leaf discs were placed in each Petri Plate on autoclaved paper (4 layers), the paper was previously wetted by adding 8.5 mL of sterile water in each plate. The leaf discs were placed on the paper with the abaxial side upward.
Test products application and pathogen inoculation: leaf discs were treated with the test products at 11.30 A.M (i.e. a preventive application) and the leaves were allowed to dry. The products were sprayed with a small hand sprayer; 5 sprays were applied on each plate. The same day at 16.30 a suspension of P. viticola spores at final concentration of 2*10^5 spore/mL was applied (5 hours after test product application) on the leaf discs. The inoculated plates were incubated overnight in the dark at 25° C. The following day, the leaf discs were dried under the laminar flow and then placed back at 25° C. The disease assessment was done 7 days after the artificial inoculation.

[8] = test system: lettuce plants; assay: Phytotoxicity on lettuce plants after spraying; type: in vivo; conditions: 2.5% pelargonic acid, sprayed until run-off, n = 6, scale 0 to 100%
Procedure: A neutralization reaction was made with pelargonic acid (>97%) and choline hydroxide (45%) based on the titration curve (FIG. 1). Based on the titration curve, a stock solution of choline pelargonate (29.1% PLA (>97%) and 40.4% Choline hydroxide (45%)) was made by mixing 14.55 mL pelargonic acid with 15.25 mL distilled water and afterwards the addition of 20.2 mL choline hydroxide. The choline pelargonate stock solution was diluted in distilled water to obtain a diluted choline pelargonate composition comprising about 2.5% pelargonic acid. The total concentration of choline pelargonate in the water spray solution was 37.08 g a.i./L (a.i.=active ingredient).
The next step was to assess the phytotoxicity of a composition comprising choline pelargonate on lettuce plants. As a control, plants were treated with water. The plants were also treated with a diluted pelargonic acid composition, including a diluted pelargonic acid solution based on the commercial product Beloukha (Belchim Crop Protection).
Lettuce plants were sprayed with a small hand sprayer until run-off with the respective compositions and incubated at 20° C. Each composition was tested with a setup consisting out of six plants. A visual assessment was made on lettuce plants after spraying. The effect of phytotoxicity (necrosis or discolouration) was scored by a scale from 0 to 100%, with 0% no phytotoxicity and 100% fully phytotoxicity on plants.

[9] = test system: Bintje leaflets; assay: Phytotoxicity symptoms on dipped potato leaflets (Example 4); type: in vivo; conditions: highest concentration (10 L/ha), 7 days
[10] = test system: apple trees; assay: Phytotoxicity on apple trees in the powdery mildew trial; type: in vivo; conditions: repeated applications during the season, 10 mL/L
Excerpt: During the third week of March 2017, 60 branched apple trees (rootstock M9—clone Golden B) of 2 years were transplanted from a local nursery into pots (pot: 12 Liters). The 60 potted apple plants were maintained outside the greenhouse in S. Michele all′Adige (Trento). Plants were maintained divided in 3 blocks. Each block was composed of 20 plants arranged in two rows (See scheme 1). Plants were watered through a drip irrigation system once or twice a week according to the weather conditions. The insecticidal treatments were applied uniformly on all the experimental plants. Two of the three objects were treated against powdery mildew in accordance with the foreseen spray scheme: Chemical treatments, TMAP alone, untreated. One object was maintained Untreated as reference. For the “Chemical” object, different active ingredients were used alone or in combination (Table 13).
The treatments were performed at the same time, and timings of spray were done weekly and according to the weather conditions. The applications were done with a pressurized hand sprayer (water volume 1.5-2 L per object).

[11] = dose rate 1 L·kg/ha (0.2 mL in 100 mL water)
[12] = dose rate 10 L·kg/ha (2 mL in 100 mL water)

Compound: CCCCCCCCC(=O)[O-].C[N+](C)(C)CCO [Choline pelargonate, choline pelargonate]
- Efficacy (%) (Abbott) [1, 11]: 84.9%
- Lesion Size [1, 11]: 0.41 ± 0.57 cm^2
- Efficacy (%) (Abbott) [1, 12]: 100.0%
- Lesion Size [1, 12]: 0.00 ± 0.00 cm^2
- % efficacy compared to control (Abbott) ([2]; 0.042% a.i. in PDA): 98%
- Average mycelium diameter ([2]; 0.042% a.i. in PDA): 0.9 ± 1.8 mm
- % efficacy compared to control (Abbott) ([2]; 0.42% a.i. in PDA): 100%
- Average mycelium diameter ([2]; 0.42% a.i. in PDA): 0.0 ± 0.0 mm
- % efficacy compared to control (Abbott) ([3]; 0.042% a.i. in PDA): 96%
- Average mycelium diameter ([3]; 0.042% a.i. in PDA): 2.8 ± 4.3 mm
- % efficacy compared to control (Abbott) ([3]; 0.42% a.i. in PDA): 99%
- Average mycelium diameter ([3]; 0.42% a.i. in PDA): 0.8 ± 0.9 mm
- % efficacy compared to control (Abbott) ([4]; 0.042% a.i. in PDA): 100%
- Average mycelium diameter ([4]; 0.042% a.i. in PDA): 0.0 ± 0.0 mm
- % efficacy compared to control (Abbott) ([4]; 0.42% a.i. in PDA): 100%
- Average mycelium diameter ([4]; 0.42% a.i. in PDA): 0.0 ± 0.0 mm
- % efficacy compared to control (Abbott) ([5]; 0.042% a.i. in PDA): 98%
- Average mycelium diameter ([5]; 0.042% a.i. in PDA): 1.4 ± 0.5 mm
- % efficacy compared to control (Abbott) ([5]; 0.42% a.i. in PDA): 100%
- Average mycelium diameter ([5]; 0.42% a.i. in PDA): 0.0 ± 0.0 mm
- % efficacy compared to control (Abbott) ([6]; 0.042% a.i. in PDA): 67%
- Average mycelium diameter ([6]; 0.042% a.i. in PDA): 17.1 ± 1.9 mm
- % efficacy compared to control (Abbott) ([6]; 0.42% a.i. in PDA): 100%
- Average mycelium diameter ([6]; 0.42% a.i. in PDA): 0.3 ± 0.5 mm
- disease severity (level of sporulation) ([7]; 1 mL/L, preventive spray, 7 days after the artificial inoculation): 5.3%
- disease severity ([7]; 10 mL/L, preventive spray, 7 days after the artificial inoculation): 0%
- efficacy against P. viticola ([7]; test repeated a second and a third time (data not shown)): comparable with the reference copper
- Phytotoxicity (%) evaluation on lettuce plants ([8]; 0 DAA): 0.00%
- Phytotoxicity (%) evaluation on lettuce plants ([8]; 1 DAA): 1.33%
- Phytotoxicity (%) evaluation on lettuce plants ([8]; 2 DAA): 1.67%
- Phytotoxicity (%) evaluation on lettuce plants ([8]; 7 DAA): 3.50%
- phytotoxicity symptoms on leaflets [9]: some minor phytoxicity symptoms on the edge and stem
- symptoms of phytotoxicity on the plants [10]: no symptoms of phytotoxicity
